Experimental data published in the METLIN SMRT retention time set (Domingo-Almenara et al. 2019).

Experiment: gradient 5% acetonitrile 3 min, to 50% in 2 min, to 85% in 15 min, held 3 min, 100 µL/min
Details: column: Zorbax Extend-C18 2.1 x 50 mm; eluents: water / acetonitrile, 0.1% formic acid
How it was run: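 In both positive and negative ionization mode, a quadrupole time-of-flight mass spectrometer coupled to HPLC analyzed pure standards run in mixtures of ~100 molecules. The Zorbax Extend-C18 column (2.1 × 50 mm, 1.8 μm) was operated at 100 μL/min with water and acetonitrile, each containing 0.1% formic acid. The dead volume was 40 μL and the dwell volume 900 μL. Retention time came from adduct peaks that were computationally picked and individually inspected by hand.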

SMILES | RP-LC retention time [s]
CC1CN(C(=O)N2CCC(C(=O)N3CCC(C(N)=O)CC3)CC2)c2cc(Cl)ccc2O1 (stereo unspecified) | 679
CCCn1cc(CCNS(=O)(=O)Cc2ccc(F)cc2Cl)c2cccnc21 | 900
O=C(NCc1ccc(F)cc1)C(=O)NCC1OCCN1C(=O)c1cccs1 (stereo unspecified) | 702
CCOc1ccc(CCNc2nc(-c3ccc(OC)cc3)no2)cc1OCC | 1020
COc1ccccc1-c1noc(C2CCCN2C(=O)Cc2ccc(F)cc2)n1 (stereo unspecified) | 866
Cc1ccc2nc(-c3ccc(Cl)cc3)c(Nc3ccccc3C)n2c1 | 890
COCCNC(=O)C(=O)Nc1ccc(Br)cc1F | 839
CC(C)c1cc(C2NNC(=O)N2c2ccc3c(ccn3C)c2)c(O)cc1O (stereo unspecified) | 796
CC(=O)NCc1nc(-c2ccc(Oc3ccc(NC(C)=O)cc3)cc2)no1 | 662
CC(=O)Nc1ccc(-c2noc(C3CCN(C(=O)C4(c5ccccc5)CC4)CC3)n2)cc1 | 837
Cc1ccc(Cn2c(N3CCC(C(=O)NCC(C)C)CC3)nc3ccsc3c2=O)cc1 | 920
CCCSCCCNc1nc(-c2nnc(-c3cccc(C)c3)o2)nc2ccccc12 | 1190
COc1ccc(-c2ccnn2-c2ccc(SCc3ccc(F)cc3)nn2)cc1 | 738
CCOc1ccccc1C(=O)N(C)CC1(C)CCOCC1 | 794
CCCn1c(=O)sc2cc(S(=O)(=O)N3CCC(C(=O)NC(C)CC)CC3)ccc21 (stereo unspecified) | 853
COC(=O)c1ccccc1Nc1c(-c2ccccc2)nc2cnc(Br)cn12 | 1090
COc1ccc(OC)c2[nH]c(C(=O)N[C@H](C(=O)O)c3ccccc3)cc12 | 891
Cc1ccc(N2CC(c3noc(-c4ccc5c(c4)OCO5)n3)CC2=O)cc1 (stereo unspecified) | 957
CCNC(=O)c1n[nH]c2c1CC(C)CC2 (stereo unspecified) | 685
COc1ccc(OC)c(NC(=O)C2CCN(S(=O)(=O)c3c(C)nn(-c4ccccc4)c3C)CC2)c1 | 974
COc1ccc2c(c1)C1(CCN(S(=O)(=O)c3ccc(F)cc3F)C1)C(=O)N2 (stereo unspecified) | 841
Cc1ccc(CNc2cc(-n3ccnc3)ncn2)cc1 | 648

SMILES | RP-LC retention time [s]
COc1ccc(Cl)cc1NC(=O)c1cnc2sccn2c1=O | 839
O=C(NCCCN1CCCCC1)c1ccc(-c2ccnc(N3CCCC3)n2)cc1 | 592
O=C(NCC1CN(c2ccc3c(c2)OCO3)C(=O)O1)Nc1ccccc1C(F)(F)F (stereo unspecified) | 768
O=C(NCc1ccc(Br)cc1)C1CCN(c2ncnc3c2oc2ccccc23)CC1 | 982
CC1(C)C(=O)Nc2ccc(S(=O)(=O)N3CCC(c4noc(-c5ccccn5)n4)C3)cc21 (stereo unspecified) | 705
CCNC(=O)c1nc(-c2ccncc2)cs1 | 574
Cc1c(C(=O)NCCN2CCOCC2)sc2ncn(CC(=O)N3CCCCC3C)c(=O)c12 (stereo unspecified) | 598
Cc1ccc(-c2noc(CCN3CCN(c4ncccn4)CC3)n2)cc1 | 677
CCCNC(=O)c1ccc(-c2csc(C)n2)cc1 | 754
CC1CCCCN1CCNC(=O)CCCn1c(=O)c2cccn2c2ccccc21 (stereo unspecified) | 621
CCc1nn2c(CNC(=O)c3cccc(Cl)c3)c(-c3ccccc3)nc2s1 | 998
CCN1CCN(CCCNC(=O)c2cc(-c3cccnc3)nc3ccc(Br)cc23)CC1 | 581
CCc1ccc(S(=O)(=O)N2CCC(n3c(-c4ccoc4)nc4cccnc43)C2)cc1 (stereo unspecified) | 871
S=C1SCN(CCc2ccccc2)CN1CCc1ccccc1 | 1210
CN1Cc2ccccc2-n2ccnc2C12CCN(C(=O)Cc1cccc(F)c1)CC2 | 666
Cc1cc(C)cc(N2CCn3c2nc2c3c(=O)n(CC(=O)O)c(=O)n2C)c1 | 784
CCOC(=O)c1nc(NCCCN2CCN(c3cc(Cl)ccc3C)CC2)c2ccccc2n1 | 731
COc1ccc(-c2nc3cc(C)ccn3c2NC(=O)Cc2cccc3ccccc23)cc1 | 726
CCn1cc(-c2nc(C(=O)Nc3ccc(F)cc3F)cs2)c2cccnc21 | 1220
Cc1cc(C)cc(NC(=O)Cn2cccc(-c3nc(-c4ccc(Br)cc4)no3)c2=O)c1 | 1060
CCOC(=O)c1ccc(NC(=O)N2CCC(n3cnc4cccnc43)CC2)cc1 | 674
COc1ccc(NC(=O)Cn2nc3nc(N4CCSCC4)ccn3c2=O)cc1OC | 639

SMILES | RP-LC retention time [s]
O=C(CCn1cnc2cc(-c3noc(-c4cncc(Br)c4)n3)ccc21)N1CCCCCC1 | 814
Cc1c(-c2ccccc2)nc2ccc(Br)cc2c1C(=O)O | 698
CCc1sc(NC(=O)c2cc3c([nH]c2=O)CCCC3=O)nc1-c1ccc2c(c1)CCCC2 | 1170
CC(=O)N1c2ccc(S(=O)(=O)N3CCC(C(=O)Nc4cccnc4)CC3)cc2CC1C (stereo unspecified) | 617
Cc1cc(C)n(-c2ccnc(N3CCC(C(=O)NCCN4CCCC4)CC3)n2)n1 | 587
COc1ccc(NC(=O)C(C)C2CCN(C(=O)Nc3ccccc3)CC2)c(OC)c1 (stereo unspecified) | 810
COc1ccc(C(=O)Nc2cccc(-c3ccc(S(C)(=O)=O)nn3)c2)cc1OC | 681
CS(=O)(=O)c1ccc2nc(NCCc3cccs3)sc2c1 | 738
Cc1ccc(-c2nnc(Cc3nc(-c4cccc(C(F)(F)F)c4)no3)o2)cc1F | 1180
O=C(Nc1ccc2c(c1)OCCO2)C1CCN(c2cc(N3CCSCC3)ncn2)CC1 | 662
COc1ccc(-c2cc(N3CCC(NC(=O)c4cccc(C#N)c4)C3)n[nH]2)cc1 (stereo unspecified) | 692
Cn1ccnc1C(=O)N1CC(n2cc(COc3ccc(F)cc3)nn2)C1 | 715
Cc1cc(C)c(S(=O)(=O)N2CCC(C)(C(=O)NCc3ccc4c(c3)OCO4)CC2)cc1C | 1010
COc1cccc(-c2noc(CN3C(=O)COc4ccccc43)n2)c1OC | 908
CCOC(=O)c1c(C)c(C(=O)C(C)N(CC)C(=O)c2ccccc2Cl)c(C)n1CC (stereo unspecified) | 1050
CCc1ccc(NC(=O)Cn2nc3nc(N4CCCC4)ccn3c2=O)cc1 | 678
O=C(NCCC1=CCCCC1)c1nc(-c2ccnc(N3CCOCC3)c2)no1 | 962
CCN1c2cc(Cl)ccc2C(=O)NC12CCN(C(=O)NCc1cccc(F)c1)CC2 | 856
CCCS(=O)(=O)c1nc2ccc(NS(=O)(=O)c3cc(C)c(C)cc3C)cc2s1 | 1040
Cc1ccc(-c2nnc(-c3ccc(-n4ccnc4)nc3)o2)cc1F | 716
COc1ccc(-c2nnc(SCc3cc(=O)n4ccsc4n3)o2)cc1 | 722
O=C(Cn1nc2c3ccc(Cl)cc3ncn2c1=O)NCc1ccccc1 | 716
